Like-named read-outs stand apart in the source and are kept apart here.
How the values were obtained:
[1] = target: T1, progesterone receptor (PR) (Homo sapiens, UniProt P06401); test: Assay for agonist activity on progesterone receptor (luciferase reporter, HEK293 cells transfected with pBIND-PR plasmid); assay type: cell-based; conditions: for Target selectivity PR/GR: ratio of EC50 values
T1 sequence (P06401 678-933): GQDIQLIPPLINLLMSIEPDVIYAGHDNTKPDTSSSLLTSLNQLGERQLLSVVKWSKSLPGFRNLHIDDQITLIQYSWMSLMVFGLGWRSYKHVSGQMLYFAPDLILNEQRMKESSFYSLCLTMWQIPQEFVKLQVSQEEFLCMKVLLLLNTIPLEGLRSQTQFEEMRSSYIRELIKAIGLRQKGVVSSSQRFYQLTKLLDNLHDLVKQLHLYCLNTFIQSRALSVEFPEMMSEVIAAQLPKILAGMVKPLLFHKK
Method in brief: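 HEK293 cells transiently transfected with pBIND-MR or pBIND-PR, seeded in phenol red-free DMEM with 5% charcoal-stripped serum. Compounds tested as 12-point 4-fold dilutions from 50 µM in duplicate, 0.1% DMSO blank. Luciferase luminescence read, EC50 by nonlinear fit.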

[2] = Stability in animal lung tissue homogenate, skin tissue homogenate and aqueous humor; assay type: in vitro ADME
psoriasis model mice = test: Psoriasis experiment (imiquimod model): skin lesion (PASI) score; assay type: in vivo; conditions: for PASI scores: compared with the model group; for PASI score: day 8 of modeling, 0.2 g cream per mouse daily for 7 days (compounds 1 mg/g, fluticasone propionate 0.5 mg/g)
Experimental: (§1) Positive control drug: Fluticasone Propionate Cream (specification: 0.05% × 15 g, Zhejiang Xianju Pharmaceutical Co. Ltd., Lot No. 211106), stored at room temperature protected from light until use.
(§2) Adult mice were selected, and the skin of 2 cm × 3 cm on the back of mice was locally depilated. The mice in the model group and drug administration group were applied with 62.5 mg of 5% imiquimod cream on their back for modeling, while the mice in the blank control group were applied with medical petroleum jelly on their back daily. The above procedures were performed once a day for 7 consecutive days.
(§3) The mice in the drug administration group were applied with the corresponding drugs on their backs daily at a dose of 0.2 g per mouse, while the blank control group and the model group were only applied with 0.2 g of the test sample drug matrix. One hour after drug administration, the drugs were wiped off with sterile cotton swabs, followed by the application of imiquimod. The above procedures were performed once a day for 7 consecutive days.
Referring to the clinical Psoriasis Area and Severity Index (PASI) scoring criteria, erythema, scaling, and thickness at the skin lesion sites were evaluated on a 0-4 scale on day 8 of modeling, and the total score was obtained by summing the three items.
• (1) Erythema: a score of 0 points indicates no erythema, a score of 1 point indicates erythema appearing light red, a score of 2 points indicates erythema appearing red, a score of 3 points indicates erythema appearing dark red, and a score of 4 points indicates erythema appearing extremely deep red; • (2) Scaling: a score of 0 points indicates no scaling on the surface, a score of 1 point indicates partial skin lesions covered with scaling, a score of 2 points indicates most skin lesions covered with scaling, a score of 3 points indicates almost all skin lesions covered with scaling in layers, and a score of 4 points indicates all skin lesions covered with scaling; • (3) Thickness: a score of 0 points indicates skin lesions flush with normal skin, a score of 1 point indicates skin lesions slightly elevated above normal skin surface, a score of 2 points indicates moderate elevation of skin lesions, a score of 3 points indicates thickened skin lesions with obvious elevation, and a score of 4 points indicates highly thickened skin lesions with prominent elevation.
(§4) Statistical analysis was performed using SPSS software, and the results were expressed as mean ± standard deviation. One-way ANOVA was used for intergroup comparisons. For data with homogeneous variance, the LSD test was used; for data with heterogeneous variance, the Dunnett-t test was used. A value of P < 0.05 was considered statistically significant.

IL-17 = test: Psoriasis experiment (imiquimod model): inflammatory cytokine in serum (ELISA); assay type: in vivo, mice; conditions: for level of IL-17 / inflammatory cytokines in psoriasis model mice: compared with the model group; for IL-17: serum, day 8 of modeling, 0.2 g cream per mouse daily for 7 days
Experimental: as §1, §2, §3
After the PASI scoring on day 8 of modeling, blood was collected from the orbital sinus of mice and centrifuged at 3000 rpm for 10 min. The supernatant was extracted to measure the level of IL-17. All procedures were performed following the instructions of the ELISA kit.
as §4

epidermal layer in rats = test: Adverse reactions of continuous dermal administration: thickness of the epidermal layer (H&E sections); assay type: in vivo, SD rats; conditions: for thickness of the epidermal layer after continuous dermal administration: compared with the blank control group; for Epidermal layer thickness (µm): 100 mg cream on the back twice a day for a week (compounds 1 mg/g, Compound Dexamethasone Acetate 0.75 mg/g)
From the text: Pharmacological Example 10: Experiment on Adverse Reactions of Continuous Dermal Administration in Rats
Animals: SD rats, SPF grade, with an equal number of males and females, weighing 230-250 g.
Animal grouping: After adaptive feeding, the rats were randomly divided into 4 groups. […] One day before administration, the backs of rats were shaved at an area of 5 cm × 6 cm. […] The rats in the blank control group were applied with the blank matrix of corresponding mass on their backs, twice a day for a consecutive week. Table 21. Animal grouping and drug administration dosages for the experiment on adverse reactions of continuous dermal administration in rats
To examine the effects of continuous administration of the test samples on the epidermal layer, the back skin tissues were stained with hematoxylin and eosin (H&E) (magnification ×40), and the thickness of the epidermal layer was quantitatively measured based on the H&E-stained sections.

[3] = Pharmacokinetic (PK) experiment in rats; assay type: in vivo, male SD rats; conditions: same experimental conditions
Experimental: Pharmacological Example 11. Pharmacokinetic (PK) Experiment in Rats
The solution was prepared before administration.
Animals: 6 male SD rats, SPF grade (Beijing Vital River Laboratory Animal Technology Co., Ltd.).
Animal grouping: The animals were weighed prior to administration, and the dosage was calculated based on body weight. The animals in the oral administration group were fasted overnight (10-14 hours) before administration, and food was reintroduced 4 hours post-administration. Table 23. Animal grouping and drug administration dosages for pharmacokinetic (PK) experiment in rats
Blood collection time points: Blood was collected from the jugular vein at 2 min, 5 min, 15 min, 30 min, 1 h, 2 h, 4 h, 8 h, and 24 h after administration. Approximately 0.25 mL of blood was collected for each sample, anticoagulated with heparin sodium, and then placed on ice immediately.
Plasma sample processing: Blood samples were placed on ice after collection and centrifuged to separate plasma within 1 hour (centrifugation conditions: 6000 rpm, 3 minutes, 2-8 °C ). Plasma samples were stored in a -80°C freezer before analysis.
Data processing: Pharmacokinetic parameters were calculated using Phoenix WinNonlin 8.2.0 based on the plasma drug concentration data at different time points.

[4] = EC50 of agonist activity, HEK293 reporter cells, top concentration 50 µM, read-out: Nuclear receptor enzyme activity (nM) PR

C[C@]12C=CC(=O)C=C1CC[C@H]1[C@@H]3C[C@H]4OC(c5ccc(COC6CCOC6=O)cc5)O[C@@]4(C(=O)CO)[C@@]3(C)C[C@H](O)[C@@]12Cl (stereo partly drawn) [Compound 22, (6aS,6bR,7S,8aS,8bS,11aR,12aS,12bS)-6b-Chloro-7-hydroxy-8b-(2-hydroxyacetyl)-6a,8a-dimethyl-10-(4-(((2-oxotetrahydrofuran-3-yl)oxy)methyl)phenyl)-1,2,6a,6b,7,8,8a,8b,11a,12,12a,12b-do decahydro-4H-naphtho[2',1':4,5]indeno[1,2-d][1,3]dioxol-4-one]
EC50 [1]: > 50000 nM
Target selectivity PR/GR [1]: > 9.1×10^4
stability in animal lung tissue homogenate, skin tissue homogenate, and aqueous humor [2]: relatively stable
PASI scores (psoriasis model mice): significantly decreased PASI scores on day 7
level of IL-17 / inflammatory cytokines in psoriasis model mice (IL-17): significantly inhibited inflammatory cytokines in the skin of psoriasis model mice
thickness of the epidermal layer after continuous dermal administration (epidermal layer in rats): no significant changes in the thickness of the epidermal layer observed
pharmacokinetic properties (plasma clearance rate, systemic exposure) [3]: pharmacokinetic properties similar to those of compound 8

C[C@]12C=CC(=O)C=C1CC[C@H]1[C@@H]3C[C@H]4OC(c5ccc(COC6CCOC6=O)cc5)O[C@@]4(C(=O)CO)[C@@]3(C)C[C@H](O)[C@@]12F (stereo partly drawn) [Compound 16, (6aS,6bR,7S,8aS,8bS,11aR,12aS,12bS)-6b-Fluoro-7-hydroxy-8b-(2-hydroxyacetyl)-6a,8a-dimethyl-10-(4-(((2-oxotetrahydrofuran-3-yl)oxy)methyl)phenyl)-1,2,6a,6b,7,8,8a,8b,11a,12,12a,12b-do decahydro-4H-naphtho[2',1':4,5]indeno[1,2-d][1,3]dioxol-4-one]
EC50 [1]: > 50000 nM
Target selectivity PR/GR [1]: > 1.2×10^5
stability in animal lung tissue homogenate, skin tissue homogenate, and aqueous humor [2]: relatively stable
PASI scores (psoriasis model mice): significantly decreased PASI scores on day 7
level of IL-17 / inflammatory cytokines in psoriasis model mice (IL-17): significantly inhibited inflammatory cytokines in the skin of psoriasis model mice
thickness of the epidermal layer after continuous dermal administration (epidermal layer in rats): no significant changes in the thickness of the epidermal layer observed
pharmacokinetic properties (plasma clearance rate, systemic exposure) [3]: pharmacokinetic properties similar to those of compound 8

C[C@]12C=CC(=O)C=C1CC[C@H]1[C@@H]3C[C@H]4OC(c5ccc(CSC6CCOC6=O)cc5)O[C@@]4(C(=O)CO)[C@@]3(C)C[C@H](O)[C@@]12Cl (stereo partly drawn) [Compound 23, (6aS,6bR,7S,8aS,8bS,11aR,12aS,12bS)-6b-Chloro-7-hydroxy-8b-(2-hydroxyacetyl)-6a,8a-dimethyl-10-(4-(((2-oxotetrahydrofuran-3-yl)thio)methyl)phenyl)-1,2,6a,6b,7,8,8a,8b,11a,12,12a,12b-do decahydro-4H-naphtho[2',1':4,5]indeno[1,2-d][1,3]dioxol-4-one]
EC50 [1, 4]: > 50000 nM
Target selectivity PR/GR [1]: > 2.4×10^5
stability in animal lung tissue homogenate, skin tissue homogenate, and aqueous humor [2]: relatively stable
PASI scores (psoriasis model mice): PASI scores significantly decreased on day 7
PASI score (psoriasis model mice): 3.8 ± 1.0
level of IL-17 / inflammatory cytokines in psoriasis model mice (IL-17): significantly decreased the level of IL-17
IL-17 (IL-17): 19.56 ± 8.13 pg/mL
Epidermal layer thickness (µm) (epidermal layer in rats): 24.3 ± 1.1 µm
thickness of the epidermal layer after continuous dermal administration (epidermal layer in rats): no significant changes in the thickness of the epidermal layer were observed
pharmacokinetic properties (plasma clearance rate, systemic exposure) [3]: pharmacokinetic properties similar to those of compound 8

C[C@]12C=CC(=O)C=C1CC[C@H]1[C@@H]3C[C@H]4OC(c5ccc(CSC6CCOC6=O)cc5)O[C@@]4(C(=O)CO)[C@@]3(C)C[C@H](O)[C@@]12F (stereo partly drawn) [Compound 17, (6aS,6bR,7S,8aS,8bS,11aR,12aS,12bS)-6b-Fluoro-7-hydroxy-8b-(2-hydroxyacetyl)-6a,8a-dimethyl-10-(4-(((2-oxotetrahydrofuran-3-yl)thio)methyl)phenyl)-1,2,6a,6b,7,8,8a,8b,11a,12,12a,12b-do decahydro-4H-naphtho[2',1':4,5]indeno[1,2-d][1,3]dioxol-4-one]
EC50 [1, 4]: > 50000 nM
Target selectivity PR/GR [1]: > 1.7×10^5
stability in animal lung tissue homogenate, skin tissue homogenate, and aqueous humor [2]: relatively stable
PASI scores (psoriasis model mice): PASI scores significantly decreased on day 7
PASI score (psoriasis model mice): 4.5 ± 0.6
level of IL-17 / inflammatory cytokines in psoriasis model mice (IL-17): significantly decreased the level of IL-17
IL-17 (IL-17): 31.30 ± 14.99 pg/mL
Epidermal layer thickness (µm) (epidermal layer in rats): 23.5 ± 3.5 µm
thickness of the epidermal layer after continuous dermal administration (epidermal layer in rats): no significant changes in the thickness of the epidermal layer were observed
pharmacokinetic properties (plasma clearance rate, systemic exposure) [3]: pharmacokinetic properties similar to those of compound 8

C[C@]12C=CC(=O)C=C1[C@@H](F)C[C@H]1[C@@H]3C[C@H]4OC(c5ccc(CSC6CCOC6=O)cc5)O[C@@]4(C(=O)OCF)[C@@]3(C)C[C@H](O)[C@@]12F (stereo partly drawn) [Compound 36, Fluoromethyl (2S,6aS,6bR,7S,8aS,8bS,11aR,12aS,12bS)-2,6b-difluoro-7-hydroxy-6a,8a-dimethyl-4-oxo-10-(4-( ((2-oxotetrahydrofuran-3-yl)thio)methyl)phenyl)-1,2,4,6a,6b,7,8,8a,11a,12,12a,12b-dodecahydro-8bH-naphtho[2',1':4,5]indeno[1,2-d][1,3]dioxole-8b-carboxylate]
EC50 [1]: > 50000 nM
Target selectivity PR/GR [1]: > 4.2×10^5
stability in animal lung tissue homogenate, skin tissue homogenate, and aqueous humor [2]: relatively stable
PASI scores (psoriasis model mice): significantly decreased PASI scores on day 7
level of IL-17 / inflammatory cytokines in psoriasis model mice (IL-17): significantly inhibited inflammatory cytokines in the skin of psoriasis model mice
thickness of the epidermal layer after continuous dermal administration (epidermal layer in rats): no significant changes in the thickness of the epidermal layer observed
pharmacokinetic properties (plasma clearance rate, systemic exposure) [3]: pharmacokinetic properties similar to those of compound 8

C[C@]12C=CC(=O)C=C1[C@@H](F)C[C@H]1[C@@H]3C[C@H]4OC(c5ccc(CSC6CCOC6=O)cc5)O[C@@]4(C(=O)SCF)[C@@]3(C)C[C@H](O)[C@@]12F (stereo partly drawn) [Compound 34, S-(Fluoromethyl) (2S,6aS,6bR,7S,8aS,8bS,11aR,12aS,12bS)-2,6b-difluoro-7-hydroxy-6a,8a-dimethyl-4-oxo-10-(4-( ((2-oxotetrahydrofuran-3-yl)thio)methyl)phenyl)-1,2,4,6a,6b,7,8,8a,11a,12,12a,12b-dodecahydro-8bH-naphtho[2',1':4,5]indeno[1,2-d][1,3]dioxole-8b-carbothioate]
EC50 [1]: > 50000 nM
Target selectivity PR/GR [1]: > 5.0×10^5
stability in animal lung tissue homogenate, skin tissue homogenate, and aqueous humor [2]: relatively stable
PASI scores (psoriasis model mice): significantly decreased PASI scores on day 7
level of IL-17 / inflammatory cytokines in psoriasis model mice (IL-17): significantly inhibited inflammatory cytokines in the skin of psoriasis model mice
thickness of the epidermal layer after continuous dermal administration (epidermal layer in rats): no significant changes in the thickness of the epidermal layer observed
pharmacokinetic properties (plasma clearance rate, systemic exposure) [3]: pharmacokinetic properties similar to those of compound 8

— patent EP4635969A1, “NOVEL GLUCOCORTICOID, METHOD FOR PREPARING SAME, AND USE THEREOF” (Tianjin Pharmaceutical Biotechnology Co., Ltd., priority 2022, dated 2024)
